Drawing on patent publication US11254686B1 (Corvus Pharmaceuticals, Inc., priority 2017, dated 2022), this text covers Ratio and IC50 for 16 molecules.

In assay [1] the target is adenosine A2B receptor (Homo sapiens (Human), UniProt P29275). The assay can be described thus: Adenosine receptor activity assay (Table 1), A2B activity. The assay is classed as biochemical. Particulars: for Ratio: A2A activity to A2B activity (A2A/A2B); for IC50: read-out: Ave A2B cAMP IC50.
Assay [2] has as its target adenosine A2A receptor (Homo sapiens (Human), UniProt P29274). Briefly: Adenosine receptor activity assay (Table 1), A2A activity. As to conditions: read-out: Ave A2A cAMP IC50. It counts as biochemical.
Assay [3] deals with T1, adenosine A1 receptor (Homo sapiens (Human), UniProt P30542). Briefly: A1 cAMP IC50 assay (Table 1). The assay is classed as biochemical.
The target in assay [4] is T2, adenosine A3 receptor (Homo sapiens (Human), UniProt P0DMS8). The assay can be described thus: A3 cAMP IC50 assay (Table 1). The assay is classed as biochemical.
For assay [5], the target named is T1, adenosine A1 receptor. Briefly: Adenosine receptor activity assay (Table 1), A1 cAMP. The assay is classed as cell-based.
For assay [6], the target named is T2, adenosine A3 receptor. The assay can be described thus: Adenosine receptor activity assay (Table 1), A3 cAMP. The assay is classed as cell-based.

By IC50 is commonly meant the concentration that gives 50% inhibition.

Sequence of adenosine A2B receptor (P29275 whole entry): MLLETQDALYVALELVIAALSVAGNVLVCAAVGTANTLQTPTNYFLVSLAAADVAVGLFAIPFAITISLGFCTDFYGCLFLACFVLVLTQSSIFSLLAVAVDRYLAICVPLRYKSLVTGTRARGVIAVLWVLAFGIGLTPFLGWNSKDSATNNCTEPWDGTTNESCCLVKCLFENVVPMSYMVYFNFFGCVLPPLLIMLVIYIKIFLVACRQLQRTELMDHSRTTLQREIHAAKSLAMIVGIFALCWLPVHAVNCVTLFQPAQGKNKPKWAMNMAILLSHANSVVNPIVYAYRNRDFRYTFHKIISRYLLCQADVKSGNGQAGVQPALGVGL
T2 sequence (P0DMS8 whole entry): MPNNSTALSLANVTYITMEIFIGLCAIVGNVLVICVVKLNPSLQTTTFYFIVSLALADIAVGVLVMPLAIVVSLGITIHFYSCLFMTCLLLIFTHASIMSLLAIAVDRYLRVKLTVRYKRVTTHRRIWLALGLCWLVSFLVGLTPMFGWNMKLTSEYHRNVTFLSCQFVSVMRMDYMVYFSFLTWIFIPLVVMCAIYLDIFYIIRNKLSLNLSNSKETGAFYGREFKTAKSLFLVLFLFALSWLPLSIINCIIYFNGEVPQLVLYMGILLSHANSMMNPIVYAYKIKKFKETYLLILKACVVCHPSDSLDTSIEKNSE
Sequence of adenosine A2A receptor (P29274 whole entry): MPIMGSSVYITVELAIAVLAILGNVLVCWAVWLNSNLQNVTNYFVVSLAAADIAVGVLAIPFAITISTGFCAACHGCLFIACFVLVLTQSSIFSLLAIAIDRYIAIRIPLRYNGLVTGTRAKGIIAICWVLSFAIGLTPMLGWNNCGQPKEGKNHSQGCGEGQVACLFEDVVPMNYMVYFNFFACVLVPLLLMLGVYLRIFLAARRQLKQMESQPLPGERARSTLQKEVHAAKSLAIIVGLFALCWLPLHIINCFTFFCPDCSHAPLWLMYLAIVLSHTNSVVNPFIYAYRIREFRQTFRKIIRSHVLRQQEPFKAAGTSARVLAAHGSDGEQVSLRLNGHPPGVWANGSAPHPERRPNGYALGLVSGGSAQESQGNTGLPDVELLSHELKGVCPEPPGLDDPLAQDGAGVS
T1 sequence (P30542 whole entry): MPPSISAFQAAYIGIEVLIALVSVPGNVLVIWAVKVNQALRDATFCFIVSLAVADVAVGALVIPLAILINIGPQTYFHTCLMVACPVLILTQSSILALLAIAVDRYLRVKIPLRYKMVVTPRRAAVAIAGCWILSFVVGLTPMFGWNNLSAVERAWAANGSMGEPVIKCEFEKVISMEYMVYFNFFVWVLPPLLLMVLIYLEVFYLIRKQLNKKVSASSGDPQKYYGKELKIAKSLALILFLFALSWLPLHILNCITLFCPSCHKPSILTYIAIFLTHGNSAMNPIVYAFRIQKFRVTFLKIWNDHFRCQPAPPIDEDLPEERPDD

In the case of `C[C@H](Nc1nc(C(=O)N2CCC(F)(F)C2)c2sccc2n1)c1cccnc1` [Example Z13, (S)-(3,3-Difluoropyrrolidin-1-yl)(2-((1-(pyridin-3-yl)ethyl)amino)thieno[3,2-d]pyrimidin-4-yl)methanone], in assay [1], the Ratio amounted to 3.93. In addition, the IC50 was 10 to 50 nM in assay [1], 100 to 500 nM in assay [2], greater than 500 nM in assay [3] and greater than 500 nM in assay [4].

As to `C[C@H](Nc1nc(C(=O)NCc2ccccc2)c2sccc2n1)c1cccnc1` [Example Z42, (S)—N-Benzyl-2-((1-(pyridin-3-yl)ethyl)amino)thieno[3,2-d]pyrimidine-4-carboxamide], in assay [1], the Ratio stood at 0.20. Besides, the IC50 is 100 to 500 nM in assay [1], 10 to 50 nM in assay [2], 100 to 500 nM in assay [3] and 50 to 100 nM in assay [4].

With `COc1cccc(CNC(=O)c2nc(N[C@@H](C)c3cccnc3)nc3ccsc23)n1` [Example Z73, (S)—N-((6-Methoxypyridin-2-yl)methyl)-2-((1-(pyridin-3-yl)ethyl)amino)thieno[3,2-d]pyrimidine-4-carboxamide], the Ratio in assay [1] is 3.11. Moreover, the IC50 in assay [1] is 10 to 50 nM; in assay [2] it was 50 to 100 nM; in assay [3], greater than 500 nM; in assay [4], 50 to 100 nM.

On to `O=C(c1nc(NCc2cccc(F)c2)nc2ccsc12)N1CCCC1` [Example Z84, (2-((3-Fluorobenzyl)amino)thieno[3,2-d]pyrimidin-4-yl)(pyrrolidin-1-yl)methanone], for which the Ratio in assay [1] turned out to be 18.10. The IC50 in assay [1] is 10 to 50 nM; in assay [2], greater than 500 nM; in assay [3], greater than 500 nM; in assay [4], greater than 500 nM.

On to `C[C@H](Nc1nc(C(=O)NCc2ccccn2)c2sccc2n1)c1cccnc1` [Example Z89, (S)—N-(Pyridin-2-ylmethyl)-2-((1-(pyridin-3-yl)ethyl)amino)thieno[3,2-d]pyrimidine-4-carboxamide], for which, in assay [1], the Ratio came to 0.89. Moreover, the IC50 in assay [1] was 10 to 50 nM; in assay [2], 10 to 50 nM; in assay [3], greater than 500 nM; in assay [4], 50 to 100 nM.

Take `O=C(c1nc(NCc2cncc(Cl)c2)nc2ccsc12)N1CCCC1` [Example Z93, (2-(((5-Chloropyridin-3-yl)methyl)amino)thieno[3,2-d]pyrimidin-4-yl)(pyrrolidin-1-yl)methanone]: the Ratio in assay [1] stood at 57.59. The IC50 in assay [1] was 10 to 50 nM; in assay [2], greater than 500 nM; in assay [3], greater than 500 nM; in assay [4], greater than 500 nM.

In the case of `O=C(c1nc(NCc2ccccn2)nc2ccsc12)N1CCCC1` [Example Z95, (2-((Pyridin-2-ylmethyl)amino)thieno[3,2-d]pyrimidin-4-yl)(pyrrolidin-1-yl)methanone], the Ratio in assay [1] was determined as 8.80. The IC50 in assay [1] was 10 to 50 nM; in assay [2], 100 to 500 nM; in assay [3], greater than 500 nM; in assay [4] it was greater than 500 nM.

Take `C[C@H](Nc1nc(C(=O)NCc2ccc(OCC3CC3)nc2)c2sccc2n1)c1ccccn1` [Example Z107, (S)—N-((6-(Cyclopropylmethoxy)pyridin-3-yl)methyl)-2-((1-(pyridin-2-yl)ethyl)amino)thieno[3,2-d]pyrimidine-4-carboxamide]: the Ratio in assay [1] is 0.84. In addition, the IC50 lay within 50 to 100 nM in assay [1], 50 to 100 nM in assay [2], 100 to 500 nM in assay [3] and 100 to 500 nM in assay [4].

On to `C[C@H](Nc1nc(C(=O)N2CCC2)c2sccc2n1)c1cccc(F)c1` [Example Z128, (S)-Azetidin-1-yl(2-((1-(3-fluorophenyl)ethyl)amino)thieno[3,2-d]pyrimidin-4-yl)methanone], for which, in assay [1], the Ratio amounted to 32.43. For the same molecule, the IC50 in assay [1] is less than 10 nM; in assay [2], 50 to 100 nM; in assay [3], greater than 500 nM; in assay [4], greater than 500 nM.

For `C[C@H](Nc1nc(C(=O)N2CC[C@@H](O)C2)c2sccc2n1)c1cccc(F)c1` [Example Z132, (2-(((S)-1-(3-Fluorophenyl)ethyl)amino)thieno[3,2-d]pyrimidin-4-yl)((R)-3-hydroxypyrrolidin-1-yl)methanone], the Ratio in assay [1] is 20.13. Also, the IC50 in assay [1] was less than 10 nM; in assay [2], 100 to 500 nM; in assay [3], greater than 500 nM; in assay [4], greater than 500 nM.

As for `C[C@H](Nc1nc(C(=O)N[C@H]2CCN(C(=O)OC(C)(C)C)C2)c2sccc2n1)c1ccccn1` [Example Z143, tert-Butyl (S)-3-(2-(((S)-1-(pyridin-2-yl)ethyl)amino)thieno[3,2-d]pyrimidine-4-carboxamido)pyrrolidine-1-carboxylate], the Ratio in assay [1] stood at 0.44. Further, the IC50 in assay [1] was 50 to 100 nM; in assay [2], 10 to 50 nM; in assay [3], greater than 500 nM; in assay [4] it was 10 to 50 nM.

Take `COCCNC(=O)c1nc(N[C@@H](C)c2ccccn2)nc2ccsc12` [Example Z144, (S)—N-(2-Methoxyethyl)-2-((1-(pyridin-2-yl)ethyl)amino)thieno[3,2-d]pyrimidine-4-carboxamide]: the Ratio in assay [1] came out at 1.52. Moreover, the IC50 in assay [1] was 10 to 50 nM; in assay [2], 50 to 100 nM; in assay [3], greater than 500 nM; in assay [4], 50 to 100 nM.

In the case of `CNc1cc2nc(N[C@@H](C)c3cccnc3)nc(C(=O)N3CCC3)c2s1` [Example Z153, (S)-Azetidin-1-yl(6-(methylamino)-2-((1-(pyridin-3-yl)ethyl)amino)thieno[3,2-d]pyrimidin-4-yl)methanone], in assay [1], the Ratio is listed as 46.65. Besides, the IC50 was less than 10 nM in assay [1], 100 to 500 nM in assay [2], greater than 500 nM in assay [3] and 50 to 100 nM in assay [4].

For `C[C@H](Nc1nc(C(=O)N[C@H]2C[C@@H](O)C2)c2sccc2n1)c1ccccn1` [Example Z158, N-((1s,3R)-3-Hydroxycyclobutyl)-2-(((S)-1-(pyridin-2-yl)ethyl)amino)thieno[3,2-d]pyrimidine-4-carboxamide], the IC50 in assay [1] was less than 10 nM; in assay [2] it was 10 to 50 nM; in assay [3], 100 to 500 nM; in assay [4], greater than 500 nM.

For `C[C@H](Nc1nc(C(=O)NC[C@@H](C)O)c2sc(C(F)(F)F)cc2n1)c1cncc(F)c1` [Example Z393, 2-(((S)-1-(5-Fluoropyridin-3-yl)ethyl)amino)-N—((R)-2-hydroxypropyl)-6-(trifluoromethyl)thieno[3,2-d]pyrimidine-4-carboxamide], the Ratio in assay [1] was 399.70. Also, the IC50 was less than 10 nM in assay [1], greater than 500 nM in assay [2], 50 to 100 nM in assay [5] and 50 to 100 nM in assay [6].

In the case of “((R)-3-Methoxypyrrolidin-1-yl)(2-(((S)-1-(pyridin-2-yl)ethyl)amino)thieno[3,2-d]pyrimidin-4-yl)methanone [Example Z247]”, the Ratio in assay [1] stood at 2.54. Besides, the IC50 was 10 to 50 nM in assay [1], 50 to 100 nM in assay [2], greater than 500 nM in assay [5] and greater than 500 nM in assay [6].
